According to US8084431B2, “Method for inhibiting activation of macrophages, inhibiting formation of osteoclasts, inhibiting function of osteoclasts, and/or activating osteoblasts” (China Medical University, priority 2008, dated 2011):
Where two headings read alike, the source gives them in different places. Marks after values point to notes of the source that are not given here.

Columns and labels:
[1] = tested on: MMP-9 (metalloproteinases 9); assay: RT-PCR of MMP-9 mRNA in RANKL-treated macrophages RAW 264.7; assay type: cell-based; settings: kinsenoside 50 μM, RANKL 50 ng/ml, 24, 48, 72 hours, FIG. 8A and 8B
Protocol: As osteoclasts are activated, they RELEASE MMP-9 (metalloproteinases 9) to erode collagen in bones. Using RT-PCR to analyze the expression of mRNA of MMP-9, one can see if kinsenoside inhibits the bone resorption activity of osteoclasts.
As macrophages RAW 264.7 were incubated in culture plates containing 50 ng/ml of RANKL, 50 μM of kinsenoside was added thereto. After the macrophages RAW 264.7 were incubated for 24, 48, and 72 hours, mRNAs were extracted to analyze the expression of MMP-9 with RT-PCR. […] Thus, kinsenoside can inhibit the bone resorption of osteoclasts.

macrophages RAW 264.7 [2] = settings: mouse, 3 days
Protocol: After 3 days, the survival rate of the macrophages RAW 264.7 was measured with MTS (3-(4,5-di-methylthiazol-2-yl)-5-(3-carboxymethoxyphenyl)-2-(4-sulfophenyl)-2H-tetrazolium) (Promega, Madison, Wis., USA), and the result is shown in Table 10.
The mechanism of MTS is that a live cell has the activity of dehydrogenase, so MTS can be reduced to become a red purple soluble product, and the product has the highest absorbance at the wavelength of 490 nm. Therefore, the survival rate of cells can be determined according to the absorbance, and the survival rate of cells can be calculated with the following formula: Survival rate=the absorbance of the experimental group/the absorbance of the control group×100%

[3] = tested on: BALB/c mice with collagen-induced rheumatoid arthritis; assay: Collagen-induced rheumatoid arthritis of BALB/c mice; assay type: in vivo; settings: for CD4/278 (ratio of Th2 cells) / CD19/45 (ratio of B cells) / the number of lymphocytes: inguinal lymph nodes; for IgE / IgG1 / TNF-α: serum
Protocol: BALB/c mice were purchased from the National Laboratory Animal Center, Taiwan. 200 μg of type-IT collagen (Sigma) was subcutaneously injected into the tails of the BALB/c mice to induce the rheumatoid arthritis, wherein type-II collagen was emulsified with a Freund's complete adjuvant (Sigma) previously. At the […], 200 μg of type-II collagen was subcutaneously injected into the tails of the BALB/c mice again, and type-II collagen was emulsified with a Freund's incomplete adjuvant (Sigma) previously. From the day of the second injection, the BALB/c mice were administrated orally with kinsenoside (100 or 300 mg/kg) daily for 21 days. After 21 days, the BALB/c mice were sacrificed, and the blood, inguinal lymph nodes, and soles comprising joints of the BALB/c mice were collected for assay.
The concentrations of TNF-α and antibodies IgE and IgG1 in the serum were determined with ELISA method. Antibodies IgE and IgG1 reagents were purchased form Bethyl, Montgomery, Tex., USA.
Lymph nodes were taken from the both sides of the groins of the BALB/c mice, and were sieved to produce a single suspended cell line. The number of lymphocytes was determined with a flow cytometer. In addition, B cells and Th2 cells were stained with antibodies CD19/45 and CD4/278 (eBioscience) to obtain the ratio of B cells and Th2 cells.
The mRNAs were extracted from the right soles and joints of the mice, and the expression of the mRNAs of TNF-α was analyzed with RT-PCR (Reverse Transcription-Polymerase Chain Reaction).

[4] = tested on: ICR mice administrated with lipopolysaccharides; assay: LPS-induced inflammatory cytokines in the blood of ICR mice (ELISA); assay type: in vivo; settings: LPS 40 mg/kg, 1 hour
Protocol: ICR mice were intraperitoneally administrated with various dosages (100 mg/kg or 300 mg/kg) of kinsenoside. 30 minutes later, the ICR mice were intraperitoneally administrated with 40 mg/kg of lipopolysaccharides. 1 hour later, the blood of the ICR mice was collected from the retro-orbital sinus, and the concentrations of TNF-α and IL-1β were determined with an ELISA (enzyme linked immunosorbent assay) reagent (eBioscience, Boston, Mass.).

NF-κB = assay: EMSA of NF-κB entering nuclei in RANKL-activated macrophages RAW 264.7; assay type: cell-based; settings: kinsenoside 10, 25, 50 μM, RANKL 50 ng/ml, 60 minutes, FIG. 7B and 7C
Source text: EMSA (Electrophoresis Mobility Shift Assay) was used to observe the mechanism of the inhibition effect of kinsenoside on the formation of osteoclasts. It is known that RANKL may activate macrophages RAW 264.7 to make NF-κB enter nuclei to stimulate macrophages RAW 264.7 to differentiate into osteoclasts (see Wada T, Nakashima T, Hiroshi N, Penninger J M. 2006. RANKL-RANK signaling in osteoclastogenesis and bone disease. Trends Mol. Med. 12, 17-25).
The DNA sequences used in the EMSA assay are as follows:
The macrophages RAW 264.7 were incubated for 60 minutes, and then proteins in the nuclei were extracted to be analyzed with EMSA. Herein, the DNA sequences used in the EMSA assay are the same as the above experiment.

[5] = tested on: macrophages in the peritoneal cavity of ICR mice; assay: NO release of LPS-induced peritoneal macrophages (Griess reagent); assay type: cell-based; settings: LPS 1 μg/ml, 24 hours
Protocol: By means of peritoneal cavity injection, ICR mice (BioLASCO, Co., Ltd., Taiwan) were administrated with 5 wt % of thioglycollate (Becton Dickinson, Franklin Lakes, N.J.). […] Then, kinsenoside (10, 25, 50 μM) was added into the culture plates, and the macrophages were incubated for 30 minutes. Lipopolysaccharides (1 μg/ml, Sigma) were added into the plates to induce the inflammatory reaction of macrophages. 24 hours later, the supernatant was collected, and the content of nitric oxide was determined with a Griess reagent (Sigma).

MC3T3-E1 cells = assay: Survival rate of osteoblast precursor cells MC3T3-E1 (MTS); assay type: cell-based; settings: 3 days; for survival rate Experimental Group VI: with Vitamin C and β-glycerophosphatase; for survival rate Experimental Group V: without differentiation inducers
Protocol: MC3T3-E1 cells (American Type Culture Collection, Manassas, Va., USA) are the precursor cells of osteoblasts. A suitable differentiation inducer can be added into culture plates containing MC3T3-E1 cells to observe the later stage of the differentiation process of osteoblasts.
Besides various concentrations of kinsenoside as the above experiment, […] MC3T3-E1 cells, and the MC3T3-E1 cells were incubated for 3 days.

macrophages RAW 264.7 [6] = assay: NO release of LPS-induced macrophages RAW 264.7 (Griess reagent); assay type: cell-based; settings: 24 hours
Protocol: (§1) 24 hours later, the supernatant was collected, and the content of nitric oxide was determined with a Griess reagent (Sigma). After macrophages RAW 264.7 were scratched off the culture plates, proteins were extracted, and then the expression of nitric oxide synthase (iNOs), p65, and p50 (nuclear factor kappa B or NF-κB, transcription factor) was analyzed with the western blot method.

[7] = tested on: nitric oxide synthase (iNOs), p65, and p50 (NF-κB); assay: Western blot of iNOs, p65 and p50 in LPS-induced macrophages RAW 264.7; assay type: cell-based; settings: kinsenoside 10, 50, 100 μM
Protocol: as §1

[8] = kinsenoside 100 mg/kg oral daily for 21 days
[9] = kinsenoside 300 mg/kg oral daily for 21 days
[10] = kinsenoside 100 mg/kg intraperitoneal
[11] = kinsenoside 300 mg/kg intraperitoneal

## O=C1C[C@@H](OC2OC(CO)C(O)C(O)C2O)CO1 (stereo partly drawn) [kinsenoside, 3-(R)-3-β-D-glucopyranosyloxy-butanolide]
[1]
  expression of mRNA of MMP-9: inhibits the expression of mRNA of MMP-9
Macrophages RAW 264.7 [2]; 10 μM
  survival rate Experimental Group III: 117.5 ± 8.0%
  survival rate Experimental Group IV: 100.3 ± 4.0%
Macrophages RAW 264.7 [2]; 25 μM
  survival rate Experimental Group III: 139.9 ± 4.9%
  survival rate Experimental Group IV: 105.0 ± 2.4%
Macrophages RAW 264.7 [2]; 50 μM
  survival rate Experimental Group III: 136.9 ± 4.8%
  survival rate Experimental Group IV: 101.0 ± 0.3%
[3]; [8]
  CD4/278 (ratio of Th2 cells): 8.0 ± 0.6 %
  CD19/45 (ratio of B cells): 19.3 ± 2.1 %
  the number of lymphocytes: 3.3 ± 0.6* 10^5/ml
  IgE: 0.15 ± 0.03 absorbance
  IgG1: 2.44 ± 0.05 absorbance
  TNF-α: 825.9 ± 155.4* 10^−12 g/ml
[3]; [9]
  CD4/278 (ratio of Th2 cells): 7.6 ± 0.6 %
  CD19/45 (ratio of B cells): 18.6 ± 3.6 %
  the number of lymphocytes: 2.8 ± 1.0*** 10^5/ml
  IgE: 0.13 ± 0.04 absorbance
  IgG1: 2.41 ± 0.10 absorbance
  TNF-α: 790.0 ± 194.1* 10^−12 g/ml
[3]; right soles and joints, RT-PCR, kinsenoside 100 or 300 mg/kg oral, FIG. 5A and 5B
  expression of mRNAs of TNF-α: alleviates the expression of mRNAs of TNF-α
[4]; [10]
  IL-1β: 371.1 ± 127.8 ng/mL
  TNF-α: 680.5 ± 160.2 ng/mL
[4]; [11]
  IL-1β: 272.6 ± 102.6 ng/mL
  TNF-α: 513.4 ± 155.0 ng/mL
NF-κB
  amount of NF-κB that enters into the nuclei: reduces the amount of NF-κB that enters into the nuclei
[5]; kinsenoside 10 μM
  NO concentration: 26.7 ± 3.2 µM
[5]; kinsenoside 25 μM
  NO concentration: 20.2 ± 2.1 µM
[5]; kinsenoside 50 μM
  NO concentration: 16.2 ± 1.0 µM
MC3T3-E1 cells; 10 nM
  survival rate Experimental Group VI: 98.7 ± 7.8%
  survival rate Experimental Group V: 91.5 ± 3.0 %
MC3T3-E1 cells; 100 nM
  survival rate Experimental Group VI: 95.3 ± 3.3%
  survival rate Experimental Group V: 90.8 ± 2.9 %
MC3T3-E1 cells; 1000 nM
  survival rate Experimental Group VI: 95.0 ± 4.5%
  survival rate Experimental Group V: 89.5 ± 6.0 %
Macrophages RAW 264.7 [6]; kinsenoside 10 μM
  the concentration of NO: 15.5 ± 3.7 µM
Macrophages RAW 264.7 [6]; kinsenoside 50 μM
  the concentration of NO: 12.0 ± 3.1 µM
Macrophages RAW 264.7 [6]; kinsenoside 100 μM
  the concentration of NO: 8.4 ± 1.7 µM
[7]; FIG. 2A and 2B
  expression of nitric oxide synthase: reduce the expression of nitric oxide synthase
[7]; FIG. 3A to 3C
  p50 and p65 entering into the nuclei: this effect can be inhibited by kinsenoside
